From patent publication US12280088B2, “Dry powder formulation of caveolin-1 peptides and methods of use thereof” (BOARD OF REGENTS, THE UNIVERSITY OF TEXAS SYSTEM, priority 2018, dated 2025)
≈ marks a conversion by molar mass, not a printed value. One block for each compound: values may come before it. Peptide text beside a SMILES is read from it.

Experiments:
physchem = format: physicochemical
Description: Solubility of neat (i.e., not milled) CSP7 ammonium counterion form (Table 35) was performed by adding excess amount of peptide powder into 3 mL different pH buffers (Table 36) and mixing on orbital shaker at 100 rpm for 24 hours at room temperature. The solubility and freeze-thaw samples were filtered through a 0.45 μm membrane prior to being assayed by performing High Performance Liquid Chromatography (HPLC, Thermo Fisher Scientific, Fair Lawn, N.J.). Briefly, samples were analyzed using Dionex 3000 HPLC system equipped with a Waters® reversed phase C18 column 2.5 μm, 150 mm×4.60 mm. The HPLC column was heated to 60° C. for testing, and the peptide was detected at a wavelength of 215 nm and a 1 mL/min flow rate. The two mobile phases were A (0.1% acetic acid in water) and B (0.1% acetic acid in acetonitrile). The injection volume was 20 μL and the standard curve was plotted from 0.01-1 mg/ml.

[1] = Stability study of milled CSP7 (ammonium counterion): geometric particle size distribution (Sympatec HELOS, RODOS); format: physicochemical; settings: not stored (Unprocessed / Initial)
Description: (§1) Stability study for milled CSP7 (ammonium counterion) from Lot #UTA181028. The stability of milled CSP7 powder was investigated under different storage conditions for a period of up to 6 months. Milled CSP7 peptide is packaged as two forms, bulk milled powder and encapsulated milled powder. For storage as bulk milled powder, 0.21-0.24 g peptide is filled in 20 mL scintillation vials (Kimble®, DWK Life Sciences, Millville, N.J., US) and stored within a heat-sealed foil pouch (Impak Corp, Los Angeles, Calif., US) containing two bags of 1 g silica gel desiccant (Tyvek®, Sorbco Packaging LLC, Belen, N. Mex., US) in each pouch. Milled peptide powder is also encapsulated in size 3 HPMC capsules (Capsugel, Morristown, N.J., US) in a weight of about 11±5% mg, and 22-26 capsules are then packaged in HDPE bottles (Drug Plastic, Boyertown, Pa., US), followed by sealing the HDPE bottle within a foil pouch (without desiccant). Packages are stored in stability chambers at the following storage conditions: −20° C., 25° C./60% RH, and 40° C./75% RH. Samples are removed for testing at 1, 3, and 6 months (Table 38). For tests except the aerodynamic particle size distribution, encapsulated powder was removed from the capsule and mixed in a glass vial by rotating the vial.
Geometric particle size distribution. GPSD of CSP7 powder was analyzed before and after milling using a Sympatec HELOS laser diffraction instrument (Sympatec GmbH, Germany) equipped with RODOS dispersion. Measurements are taken every 10 ms following powder dispersion at 3 bar. Measurements that are between 5 and 25% optical density were averaged to determine particle size distribution. The particle sizes by volume are reported at percentiles of 10, 50, and 90 (e.g., Dv 10, Dv 50, and Dv 90), respectively, as well as the percentages of particles falling into 1-5 μm size range. The results are shown in 41.

[2] = Stability study of milled CSP7 (ammonium counterion): aerodynamic particle size distribution by NGI; format: physicochemical; settings: Lot#UTA181028; Unprocessed
Description: Determination of aerodynamic particle size distribution of milled CSP7 bulk powder. Around 3.5 mg of milled CSP7 powder was manually filled into size 3 HPMC capsules (Capsugel, Peapack, N.J.). CSP7 capsules were then aerosolized using a RS01 Monodose Dry Powder Inhaler (high resistance) and aerodynamic particle size distribution was measured by a Next Generation Impactor (NGI, MSP Corp., Shoreview, Minn.). Aerosols were produced over 4 s at an air flow rate of 60 L/min for the inhaler to achieve an inhalation volume of 4 L and 4 kPa pressure drop across the device. Before each run, NGI collection surfaces were coated with 5% (v/v) polysorbate 20 in methanol. One capsule was shot for each run and each sample was ran in triplicate repetitions (three capsules). After aerosolization, all collection surfaces were rinsed with specific volumes of 20 mM Tris buffer (pH 10.3) to collect the drug. Powders deposited in the capsule, device, adaptor, throat, pre-separator, and stages 1-MOC were extracted respectively.
For each test, delivered dose is defined as the mass of CSP7 that entered the NGI. Geometric standard deviation (GSD), mass median aerodynamic diameter (MMAD) and fine particle fraction % (FPF %) are calculated and analyzed with Copley Inhaler Testing Data Analysis Software (CITDAS, Copley Scientific, Nottingham UK), based on the doses deposited on stages 1-MOC of NGI. The FPF is defined as the mass fraction of particles less than 5.0 μm with the delivered dose.
as §1
Aerodynamic particle size distribution: The aerodynamic particle size distribution was evaluated by performing NGI as described in Example 1, except that the powder weight in the tested capsule was 11±5% mg and pre-separator was removed in the assembly of the NGI in stability study.

[3] = Geometric particle size by Sympatec laser diffraction, wet dispersion; format: physicochemical
Description: The particle sizes were next determined by Sympatec laser diffraction by a wet dispersion method. CSP7 was dissolved in ethanol +0.05% Tween 80 as dispersion medium and sonicated 10 min.

[4] = test system: Bleomycin Induced Lung Fibrosis; assay: Bleomycin induced lung fibrosis in mice, Ashcroft score; format: in vivo; settings: dry powder inhalation after bleomycin induction, vs bleomycin only
Description: Preparation and lysis of lung tissues. Female mice, ages 6-8 weeks are ordered from Jackson Laboratories, stock: 000664 C57BL/6J are cared for and housed according to IACUC guidelines. The following week, mice are weighed, anesthetized with an IP injection of 80 mg/kg Ketamine & 6 mg/kg Xylazine (approx. 115 ul/mouse) and subjected to a single intratracheal installation of bleomycin. Briefly, a 26G plastic catheter is inserted into the trachea and mice receive, via pipette, 2×20 ul installations (spaced 30 s apart to allow clearance from the airways) of 0.8 U/kg bleomycin (Biotang, Cat #RB003). Controls receive the same volume of saline only. Weight is tracked (approximately 10% weight loss occurs in injured animals) and animals are subjected to a dry powder inhalation protocol (CH technologies) daily for one week. […] Images were captured with Aperio AT2 high volume, digital whole slide scanner and lungs were scored for fibrotic injury according to modified Ashcroft scoring protocol (Hubner et al., 2008, incorporated herein by reference). […] The colormetric assay was read on a microplate reader (FilterMax F5, Molecular Devices, 580 nm). […]
Lung tissues were homogenized and collagen content was analyzed using the Quickzyme collagen assay (FIG. 30). […]

[5] = pH-solubility of polypeptide variants; format: physicochemical
Description: Solubility study of variants was performed by adding variants powders into solvent in concentration of 5 mg/ml and then vortexing for 3 min. Observe the appearance of solutions in 5 min. Add more powder (˜5 mg/ml each time) and repeat vortex and observe until precipitation or gelation occurs.

solubility thermodynamic at 24 h (physchem; pH 3, aqueous buffer): 170 µg/mL | solubility thermodynamic at 24 h (physchem; pH 4, aqueous buffer): 70 µg/mL | solubility thermodynamic at 24 h (physchem; pH 5, aqueous buffer): 50 µg/mL | solubility thermodynamic at 24 h (physchem; pH 6, aqueous buffer): 70 µg/mL | solubility thermodynamic at 24 h (physchem; pH 7, aqueous buffer): 100 µg/mL | solubility thermodynamic at 24 h (physchem; pH 8, aqueous buffer): 380 µg/mL | solubility thermodynamic at 24 h (physchem; pH 9, aqueous buffer): 2300 µg/mL | solubility thermodynamic at 24 h (physchem; pH 10, aqueous buffer): 7870 µg/mL | solubility thermodynamic at 24 h (physchem; pH 11, aqueous buffer): 14400 µg/mL | % 1-5 μm [1]: 47.0 ± 0.9% | Dv 10 [1]: 1.2 ± 0 μm | Dv 50 [1]: 4.5 ± 0.1 μm | Dv 90 [1]: 15.7 ± 0.8 μm | EF % [2]: 92.8% | FPD [2]: 4.2 mg | FPF % [2]: 48.4% | GSD [2]: 4.67 | MMAD [2]: 3.09 μm
Structure (SMILES): CC(C)[C@H](NC(=O)[C@@H](NC(=O)[C@H](Cc1ccccc1)NC(=O)[C@@H](NC(=O)[C@@H](NC(=O)[C@@H](N)Cc1ccccc1)[C@@H](C)O)[C@@H](C)O)[C@@H](C)O)C(=O)N[C@H](C(=O)O)[C@@H](C)O [CSP7 (ammonium counterion), FTTFTVT] (H-FTTFTVT-OH; N-terminus and C-terminus assumed)

Dv 50 [3]: 29.0±0.8 μm | solubility thermodynamic at 3 min ([5]; pH 4.5): 150 µg/mL (≈ 184 µM) | solubility thermodynamic at 3 min ([5]; pH 5.5): 160 µg/mL (≈ 196 µM) | solubility thermodynamic at 3 min ([5]; pH 6.5): 160 µg/mL (≈ 196 µM) | solubility thermodynamic at 3 min ([5]; pH 7.5): 310 µg/mL (≈ 380 µM) | solubility thermodynamic at 3 min ([5]; pH 8.5): 1430 µg/mL (≈ 1750 µM)
Structure (SMILES): CC(C)[C@H](NC(=O)[C@@H](NC(=O)[C@H](Cc1ccccc1)NC(=O)[C@@H](NC(=O)[C@@H](NC(=O)[C@@H](N)Cc1ccccc1)[C@@H](C)O)[C@@H](C)O)[C@@H](C)O)C(=O)N[C@H](C(=O)O)[C@@H](C)O [CSP7, FTTFTVT] (H-FTTFTVT-OH; N-terminus and C-terminus assumed)
Ashcroft score [4]: lower
